As usually defined, the AC50 is the concentration at which the activity in the assay is half-maximal. Read a high AC50 as weaker potency.

AC50 data for 13 compounds are collected here from ChEMBL document CHEMBL5291721, “A preclinical secondary pharmacology resource illuminates target-adverse drug reaction associations of marketed drugs” (Nat Commun, 2023).

The target in test [1] is T1, Type-1 angiotensin II receptor (Homo sapiens, UniProt P30556).
T1 sequence (P30556 whole entry): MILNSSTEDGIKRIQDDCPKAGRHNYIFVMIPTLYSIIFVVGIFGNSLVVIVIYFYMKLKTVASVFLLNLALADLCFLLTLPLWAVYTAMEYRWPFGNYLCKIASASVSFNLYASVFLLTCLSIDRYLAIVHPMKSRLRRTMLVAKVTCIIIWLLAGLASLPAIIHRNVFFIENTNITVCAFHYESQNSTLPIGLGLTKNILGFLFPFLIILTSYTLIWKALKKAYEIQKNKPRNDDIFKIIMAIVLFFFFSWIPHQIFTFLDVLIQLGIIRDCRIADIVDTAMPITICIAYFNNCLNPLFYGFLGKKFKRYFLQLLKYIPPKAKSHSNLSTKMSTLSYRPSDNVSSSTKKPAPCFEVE

The target of a further test is Vasopressin V1a receptor (Homo sapiens, UniProt P37288).
Sequence of Vasopressin V1a receptor (P37288 whole entry): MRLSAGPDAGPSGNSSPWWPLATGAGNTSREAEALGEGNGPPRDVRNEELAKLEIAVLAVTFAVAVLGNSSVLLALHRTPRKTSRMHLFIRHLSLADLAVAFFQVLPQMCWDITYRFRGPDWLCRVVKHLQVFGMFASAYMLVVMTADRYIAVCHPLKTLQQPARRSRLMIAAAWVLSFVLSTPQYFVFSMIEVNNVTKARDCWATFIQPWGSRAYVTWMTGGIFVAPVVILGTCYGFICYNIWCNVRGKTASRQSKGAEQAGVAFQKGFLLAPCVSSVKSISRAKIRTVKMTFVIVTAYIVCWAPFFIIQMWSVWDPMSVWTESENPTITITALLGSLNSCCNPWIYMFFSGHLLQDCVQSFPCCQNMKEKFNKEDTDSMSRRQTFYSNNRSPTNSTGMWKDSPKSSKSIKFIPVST
The target of test [2] is Growth hormone secretagogue receptor type 1 (Homo sapiens, UniProt Q92847).
Sequence of Growth hormone secretagogue receptor type 1 (Q92847 whole entry): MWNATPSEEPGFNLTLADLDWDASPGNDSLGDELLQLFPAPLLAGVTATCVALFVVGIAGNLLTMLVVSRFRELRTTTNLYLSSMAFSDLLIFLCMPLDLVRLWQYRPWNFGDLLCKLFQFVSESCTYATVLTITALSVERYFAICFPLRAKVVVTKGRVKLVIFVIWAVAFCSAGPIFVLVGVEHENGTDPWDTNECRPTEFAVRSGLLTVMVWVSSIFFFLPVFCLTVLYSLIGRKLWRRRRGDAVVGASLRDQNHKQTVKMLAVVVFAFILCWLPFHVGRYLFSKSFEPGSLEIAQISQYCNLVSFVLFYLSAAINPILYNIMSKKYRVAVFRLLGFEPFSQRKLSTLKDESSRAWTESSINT
Test [3] has as its target 3',5'-cyclic-AMP phosphodiesterase 4D (Homo sapiens, UniProt Q08499). The test is classed as functional.
A further test deals with T2, Adenosine receptor A3 (Homo sapiens, UniProt P0DMS8).
T2 sequence (P0DMS8 whole entry): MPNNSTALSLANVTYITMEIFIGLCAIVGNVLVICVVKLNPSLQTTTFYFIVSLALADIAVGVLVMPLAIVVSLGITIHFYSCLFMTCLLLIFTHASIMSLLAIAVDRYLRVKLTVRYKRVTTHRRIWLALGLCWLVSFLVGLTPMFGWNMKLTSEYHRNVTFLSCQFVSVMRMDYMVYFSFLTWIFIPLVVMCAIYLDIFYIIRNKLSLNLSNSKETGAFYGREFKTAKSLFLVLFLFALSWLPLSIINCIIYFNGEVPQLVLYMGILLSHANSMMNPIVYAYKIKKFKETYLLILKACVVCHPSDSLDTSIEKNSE

Test [4] has as its target T3, Muscarinic acetylcholine receptor M2 (Homo sapiens, UniProt P08172).
T3 sequence (P08172 whole entry): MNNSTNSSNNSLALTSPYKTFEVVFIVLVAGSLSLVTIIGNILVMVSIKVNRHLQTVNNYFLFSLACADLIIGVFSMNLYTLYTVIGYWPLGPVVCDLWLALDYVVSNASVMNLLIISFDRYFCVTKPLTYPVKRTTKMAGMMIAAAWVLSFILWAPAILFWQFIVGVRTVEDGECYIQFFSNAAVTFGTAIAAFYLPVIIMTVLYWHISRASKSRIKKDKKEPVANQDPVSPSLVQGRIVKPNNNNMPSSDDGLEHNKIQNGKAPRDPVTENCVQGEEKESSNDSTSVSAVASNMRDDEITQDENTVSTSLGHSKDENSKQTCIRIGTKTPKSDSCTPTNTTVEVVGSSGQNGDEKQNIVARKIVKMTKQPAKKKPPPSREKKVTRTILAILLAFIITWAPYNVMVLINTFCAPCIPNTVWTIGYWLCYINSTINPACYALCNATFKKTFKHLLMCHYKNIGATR
The test is classed as functional, cell-based.

Test [5] addresses Gamma-aminobutyric acid receptor subunit alpha-1 (Rattus norvegicus, UniProt P62813). The test is classed as functional.
Test [6] deals with T4, 5-hydroxytryptamine receptor 1A (Homo sapiens, UniProt P08908).
T4 sequence (P08908 whole entry): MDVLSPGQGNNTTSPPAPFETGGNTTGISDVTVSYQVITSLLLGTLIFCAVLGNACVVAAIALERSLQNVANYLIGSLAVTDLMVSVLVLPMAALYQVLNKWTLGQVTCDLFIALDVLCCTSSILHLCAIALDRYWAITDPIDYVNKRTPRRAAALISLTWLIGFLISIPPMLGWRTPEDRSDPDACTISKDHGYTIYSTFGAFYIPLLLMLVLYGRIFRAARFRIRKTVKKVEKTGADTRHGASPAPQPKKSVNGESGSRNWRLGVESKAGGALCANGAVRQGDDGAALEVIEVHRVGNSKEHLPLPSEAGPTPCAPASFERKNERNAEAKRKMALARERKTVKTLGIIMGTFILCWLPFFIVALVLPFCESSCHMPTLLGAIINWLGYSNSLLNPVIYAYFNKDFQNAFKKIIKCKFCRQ
The test is classed as functional, cell-based.

Test [7] addresses T5, 5-hydroxytryptamine receptor 3A (Homo sapiens, UniProt P46098).
T5 sequence (P46098 whole entry): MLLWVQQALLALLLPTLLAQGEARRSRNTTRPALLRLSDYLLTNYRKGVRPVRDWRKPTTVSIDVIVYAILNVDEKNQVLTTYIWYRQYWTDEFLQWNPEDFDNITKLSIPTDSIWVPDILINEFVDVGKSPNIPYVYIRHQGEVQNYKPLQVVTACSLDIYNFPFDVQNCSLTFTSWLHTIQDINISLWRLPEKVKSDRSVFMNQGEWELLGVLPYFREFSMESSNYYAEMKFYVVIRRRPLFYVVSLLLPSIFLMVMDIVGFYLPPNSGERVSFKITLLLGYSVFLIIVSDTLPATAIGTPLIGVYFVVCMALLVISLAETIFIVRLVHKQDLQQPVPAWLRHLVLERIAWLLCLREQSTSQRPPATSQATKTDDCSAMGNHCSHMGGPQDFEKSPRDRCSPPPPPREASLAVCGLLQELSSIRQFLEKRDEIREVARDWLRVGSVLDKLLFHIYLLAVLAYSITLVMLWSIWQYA
The test is classed as functional.

Test [8] has as its target Delta-type opioid receptor (Homo sapiens, UniProt P41143).
The target of test [9] is T6, Amine oxidase [flavin-containing] A (Homo sapiens, UniProt P21397).
T6 sequence (P21397 whole entry): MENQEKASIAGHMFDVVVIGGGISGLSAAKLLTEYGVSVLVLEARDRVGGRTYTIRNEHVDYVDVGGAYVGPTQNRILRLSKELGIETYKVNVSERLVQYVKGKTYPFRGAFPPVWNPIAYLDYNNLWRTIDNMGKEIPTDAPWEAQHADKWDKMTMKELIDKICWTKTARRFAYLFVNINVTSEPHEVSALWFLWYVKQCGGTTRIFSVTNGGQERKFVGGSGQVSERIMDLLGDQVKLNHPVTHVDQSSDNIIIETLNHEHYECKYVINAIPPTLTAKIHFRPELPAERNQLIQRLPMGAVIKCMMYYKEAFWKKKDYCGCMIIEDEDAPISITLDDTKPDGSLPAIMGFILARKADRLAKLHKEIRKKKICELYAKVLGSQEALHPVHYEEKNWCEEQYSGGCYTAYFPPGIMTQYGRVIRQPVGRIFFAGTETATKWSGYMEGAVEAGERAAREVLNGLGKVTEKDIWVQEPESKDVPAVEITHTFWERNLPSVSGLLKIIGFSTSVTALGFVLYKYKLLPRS
The test is classed as functional.
Note: assay procedure not described here.

Sequence of Gamma-aminobutyric acid receptor subunit alpha-1 (P62813 whole entry): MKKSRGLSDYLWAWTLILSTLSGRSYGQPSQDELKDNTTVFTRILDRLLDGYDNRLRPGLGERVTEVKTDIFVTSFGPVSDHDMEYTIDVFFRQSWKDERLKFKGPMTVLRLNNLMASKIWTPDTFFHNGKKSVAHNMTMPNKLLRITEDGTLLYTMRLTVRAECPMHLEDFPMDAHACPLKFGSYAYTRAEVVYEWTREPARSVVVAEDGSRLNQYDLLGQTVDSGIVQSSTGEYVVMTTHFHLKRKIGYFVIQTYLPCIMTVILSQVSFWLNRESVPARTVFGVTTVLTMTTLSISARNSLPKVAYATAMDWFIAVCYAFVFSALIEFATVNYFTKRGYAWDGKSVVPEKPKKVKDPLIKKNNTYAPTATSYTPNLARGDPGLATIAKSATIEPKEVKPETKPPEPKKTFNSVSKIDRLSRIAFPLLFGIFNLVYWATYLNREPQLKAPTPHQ
Sequence of Delta-type opioid receptor (P41143 whole entry): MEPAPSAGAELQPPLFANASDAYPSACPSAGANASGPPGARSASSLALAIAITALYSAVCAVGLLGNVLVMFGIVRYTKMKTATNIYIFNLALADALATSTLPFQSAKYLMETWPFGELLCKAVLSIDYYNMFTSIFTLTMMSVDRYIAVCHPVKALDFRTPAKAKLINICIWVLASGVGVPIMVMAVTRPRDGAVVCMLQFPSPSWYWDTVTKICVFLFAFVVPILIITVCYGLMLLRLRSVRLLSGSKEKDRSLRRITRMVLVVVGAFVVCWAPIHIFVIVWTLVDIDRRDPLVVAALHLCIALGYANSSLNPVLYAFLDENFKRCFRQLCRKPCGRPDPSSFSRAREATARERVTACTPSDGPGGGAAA
Sequence of 3',5'-cyclic-AMP phosphodiesterase 4D (Q08499 whole entry): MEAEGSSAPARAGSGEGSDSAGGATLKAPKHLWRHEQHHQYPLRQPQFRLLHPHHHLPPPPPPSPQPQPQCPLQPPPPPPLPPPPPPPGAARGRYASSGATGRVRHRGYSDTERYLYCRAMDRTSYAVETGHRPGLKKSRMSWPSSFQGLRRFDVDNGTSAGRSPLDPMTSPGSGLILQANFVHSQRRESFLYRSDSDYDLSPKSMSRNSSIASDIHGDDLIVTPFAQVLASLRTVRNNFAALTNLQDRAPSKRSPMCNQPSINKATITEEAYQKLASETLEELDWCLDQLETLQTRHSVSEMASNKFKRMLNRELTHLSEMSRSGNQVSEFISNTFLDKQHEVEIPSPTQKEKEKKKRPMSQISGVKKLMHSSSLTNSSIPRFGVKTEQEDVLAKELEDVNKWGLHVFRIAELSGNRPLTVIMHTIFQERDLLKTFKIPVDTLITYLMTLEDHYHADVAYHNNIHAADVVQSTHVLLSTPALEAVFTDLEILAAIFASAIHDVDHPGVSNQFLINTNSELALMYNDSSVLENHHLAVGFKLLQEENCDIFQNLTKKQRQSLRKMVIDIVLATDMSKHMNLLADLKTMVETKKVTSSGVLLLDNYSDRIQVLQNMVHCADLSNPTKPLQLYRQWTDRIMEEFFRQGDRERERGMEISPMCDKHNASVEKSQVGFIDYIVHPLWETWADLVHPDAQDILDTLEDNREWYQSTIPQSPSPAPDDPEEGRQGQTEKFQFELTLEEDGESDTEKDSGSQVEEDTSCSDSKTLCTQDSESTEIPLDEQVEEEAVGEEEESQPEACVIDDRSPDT

For the compound `C[N+]1(C)CCC(OC(=O)C(O)(c2ccccc2)C2CCCC2)C1` (stereo unspecified) [GLYCOPYRRONIUM BROMIDE], the AC50 (in test [1]; at Vasopressin V1a receptor; in test [2]; in test [3]) was above 30 µM in each case.

Consider `c1ccc([C@H]2CN3CCSC3=N2)cc1` [LEVAMISOLE], for which the AC50 (at Adenosine receptor A3; in test [1]; at Vasopressin V1a receptor; in test [4]; in test [5]; in test [2]) was above 30 µM each time. The concentration at half-maximal activity (AC50) in test [6], in test [7], in [8], in [3] and in test [9] was above 30 µM throughout.

Consider `CN(C)CCC(c1ccc(Cl)cc1)c1ccccn1` (stereo unspecified) [CHLORPHENIRAMINE], for which the AC50 on Adenosine receptor A3 is above 30 µM; in test [1], above 30 µM; on Vasopressin V1a receptor, above 10 µM; in [4] it was above 10 µM; in [5] it was above 10 µM; in test [2], above 30 µM. The AC50 in [6], in test [7], in test [8], in test [3] and in [9] was above 10 µM each time.

As for `CCCN1C[C@H](CSC)C[C@@H]2c3cccc4[nH]cc(c34)C[C@H]21` [PERGOLIDE], the AC50 (at Adenosine receptor A3; in test [1]; at Vasopressin V1a receptor; in [4]; in test [5]; in [2]) was above 30 µM each time. For the same compound, the AC50 in test [7], in [8], in test [3] and in test [9] was above 30 µM throughout.

For `O=P1(NCCCl)OCCCN1CCCl` (stereo unspecified) [IFOSFAMIDE], the AC50 (at Adenosine receptor A3; in [1]; in [4]; in test [5]; in test [2]; in test [6]) was above 30 µM each time. The AC50 in test [7], in [8], in test [3] and in test [9] was above 30 µM each time.

As to `CCCSc1ccc2nc(NC(=O)OC)[nH]c2c1` [ALBENDAZOLE], the AC50 at Adenosine receptor A3 is above 30 µM; in [1], above 10 µM; in test [4], above 10 µM; in [5], above 10 µM; in test [2], above 10 µM; in test [6], above 10 µM. The AC50 is above 30 µM in test [7], above 30 µM in [8], above 30 µM in [3] and above 10 µM in test [9].

On to `C1CCC(C(CC2CCCCN2)C2CCCCC2)CC1` (stereo unspecified) [PERHEXILINE], for which the AC50 is 14.1 µM on Adenosine receptor A3; above 30 µM in [1]; above 30 µM at Vasopressin V1a receptor; above 30 µM in test [5]; 6.2 µM in [2]; 9.1 µM in [6]. Also, the concentration at half-maximal activity (AC50) in test [7] is above 30 µM; in test [8], 23.5 µM; in test [3] it was above 30 µM; in test [9], above 30 µM.

As to `O=C(Cc1ccc(-c2ccccc2)cc1)Nc1ccccn1` [DIFENPIRAMIDE], the AC50 in test [4], in [5], in test [6], in [7], in test [8] and in test [3] was above 30 µM each time. This compound also had a concentration at half-maximal activity (AC50) in test [9] above 30 µM.

Regarding `COc1cc(NC(C)CCCN)c2ncccc2c1` (stereo unspecified) [PRIMAQUINE], the figures for the AC50 in test [1], in test [2] and in [3] were above 30 µM, above 30 µM and 12 µM, respectively.

As to `CN(C)/N=N/c1[nH]cnc1C(N)=O` [DACARBAZINE], the AC50 (at Adenosine receptor A3; in test [1]; in test [4]; in [5]; in test [2]; in test [6]) was above 10 µM each time. Moreover, the AC50 in test [7] is above 30 µM; in test [8], above 30 µM; in test [3], above 30 µM; in [9], above 10 µM.

Take `Cc1c(C(=O)NN2CCCCC2)nn(-c2ccc(Cl)cc2Cl)c1-c1ccc(Cl)cc1` [RIMONABANT]: the AC50 was 3.76 µM at Adenosine receptor A3; 16.9 µM in test [1]; 30 µM at Vasopressin V1a receptor; above 30 µM in test [5]; 25 µM in [2]; above 30 µM in test [6]. Also, the AC50 in [7], in test [8], in test [3] and in test [9] was above 30 µM each time.

In the case of `CC1=C(C(=O)O)N2C(=O)[C@@H](NC(=O)[C@H](N)c3ccccc3)[C@H]2SC1` [CEPHALEXIN ANHYDROUS], the AC50 on Adenosine receptor A3 was above 30 µM; in [1], above 30 µM; at Vasopressin V1a receptor, above 10 µM; in test [5], above 10 µM; in test [2] it was above 30 µM; in [6] it was above 30 µM. Further, the AC50 in test [7] is above 30 µM; in test [8] it was above 30 µM; in test [3], above 30 µM; in test [9] it was above 10 µM.

Turning to `Clc1ccc(C(c2ccccc2Cl)C(Cl)Cl)cc1` (stereo unspecified) [MITOTANE], the half-maximal activity concentration (AC50) (at Adenosine receptor A3; in [1]; in test [4]; in test [5]; in test [2]; in [6]) was above 10 µM in each case. The half-maximal activity concentration (AC50) is above 30 µM in test [7], above 30 µM in test [8], above 30 µM in [3] and above 10 µM in test [9].
